Experimental data from ChEMBL document CHEMBL5465560, “Selectivity Literature for EUbOPEN Chemogenomic Library” (2024).
Values belong to the molecule of their own block, whether it stands above or below them.

What was measured:
[1] = target: RAC-gamma serine/threonine-protein kinase (Homo sapiens, UniProt Q9Y243); assay: Selectivity interaction (Ambit KINOMEscan and KiNATiv profiling in Jurkat cells) EUB0000090b AKT3; assay type: cell-based; settings: at 1 µM
[2] = target: Cyclin-dependent kinase-like 1 (Homo sapiens) (UniProt Q00532); assay: Selectivity interaction (Kinase panel (DSF assay)) EUB0001559a CDKL1
Sequence of Cyclin-dependent kinase-like 1 (Homo sapiens) (Q00532 whole entry): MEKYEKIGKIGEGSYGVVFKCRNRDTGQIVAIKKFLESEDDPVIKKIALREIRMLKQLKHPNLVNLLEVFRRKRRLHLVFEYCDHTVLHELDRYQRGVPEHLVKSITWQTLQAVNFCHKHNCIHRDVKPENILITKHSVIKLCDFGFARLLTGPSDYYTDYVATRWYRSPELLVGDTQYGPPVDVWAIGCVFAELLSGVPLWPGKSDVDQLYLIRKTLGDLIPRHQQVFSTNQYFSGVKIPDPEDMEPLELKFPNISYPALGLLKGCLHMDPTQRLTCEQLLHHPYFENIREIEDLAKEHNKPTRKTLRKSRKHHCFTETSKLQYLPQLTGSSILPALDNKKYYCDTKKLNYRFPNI

[3] = target: cAMP-dependent protein kinase catalytic subunit alpha (Homo sapiens, UniProt P17612); assay: Selectivity interaction (KinomeScan (DiscoverX)) EUB0000655a PRKACA; settings: at 10 µM
[4] = target: Calcium/calmodulin-dependent protein kinase type II subunit gamma (Homo sapiens) (UniProt Q13555); assay: Selectivity interaction (KinomeScan (DiscoverX)) EUB0000618a CAMK2G; settings: at 10 µM
Sequence of Calcium/calmodulin-dependent protein kinase type II subunit gamma (Homo sapiens) (Q13555 whole entry): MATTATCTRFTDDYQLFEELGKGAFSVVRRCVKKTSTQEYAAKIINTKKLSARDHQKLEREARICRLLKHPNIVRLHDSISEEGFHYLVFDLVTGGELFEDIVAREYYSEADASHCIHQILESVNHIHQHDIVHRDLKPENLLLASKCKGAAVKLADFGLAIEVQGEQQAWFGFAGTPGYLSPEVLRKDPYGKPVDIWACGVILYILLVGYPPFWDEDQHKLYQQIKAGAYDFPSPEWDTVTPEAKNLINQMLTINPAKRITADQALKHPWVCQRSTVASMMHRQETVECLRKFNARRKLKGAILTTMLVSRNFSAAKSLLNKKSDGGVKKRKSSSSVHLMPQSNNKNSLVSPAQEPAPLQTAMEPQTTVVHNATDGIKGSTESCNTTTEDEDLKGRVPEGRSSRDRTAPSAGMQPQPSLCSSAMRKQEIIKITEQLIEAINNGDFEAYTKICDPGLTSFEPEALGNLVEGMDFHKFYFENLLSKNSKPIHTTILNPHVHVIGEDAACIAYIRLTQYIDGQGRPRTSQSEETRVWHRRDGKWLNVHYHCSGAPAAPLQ

[5] = target: T1, Cyclin-dependent kinase-like 5 (Homo sapiens) (UniProt O76039); assay: Selectivity interaction (KinomeScan (DiscoverX)) EUB0000607a CDKL5; settings: at 10 µM
T1 sequence (whole entry): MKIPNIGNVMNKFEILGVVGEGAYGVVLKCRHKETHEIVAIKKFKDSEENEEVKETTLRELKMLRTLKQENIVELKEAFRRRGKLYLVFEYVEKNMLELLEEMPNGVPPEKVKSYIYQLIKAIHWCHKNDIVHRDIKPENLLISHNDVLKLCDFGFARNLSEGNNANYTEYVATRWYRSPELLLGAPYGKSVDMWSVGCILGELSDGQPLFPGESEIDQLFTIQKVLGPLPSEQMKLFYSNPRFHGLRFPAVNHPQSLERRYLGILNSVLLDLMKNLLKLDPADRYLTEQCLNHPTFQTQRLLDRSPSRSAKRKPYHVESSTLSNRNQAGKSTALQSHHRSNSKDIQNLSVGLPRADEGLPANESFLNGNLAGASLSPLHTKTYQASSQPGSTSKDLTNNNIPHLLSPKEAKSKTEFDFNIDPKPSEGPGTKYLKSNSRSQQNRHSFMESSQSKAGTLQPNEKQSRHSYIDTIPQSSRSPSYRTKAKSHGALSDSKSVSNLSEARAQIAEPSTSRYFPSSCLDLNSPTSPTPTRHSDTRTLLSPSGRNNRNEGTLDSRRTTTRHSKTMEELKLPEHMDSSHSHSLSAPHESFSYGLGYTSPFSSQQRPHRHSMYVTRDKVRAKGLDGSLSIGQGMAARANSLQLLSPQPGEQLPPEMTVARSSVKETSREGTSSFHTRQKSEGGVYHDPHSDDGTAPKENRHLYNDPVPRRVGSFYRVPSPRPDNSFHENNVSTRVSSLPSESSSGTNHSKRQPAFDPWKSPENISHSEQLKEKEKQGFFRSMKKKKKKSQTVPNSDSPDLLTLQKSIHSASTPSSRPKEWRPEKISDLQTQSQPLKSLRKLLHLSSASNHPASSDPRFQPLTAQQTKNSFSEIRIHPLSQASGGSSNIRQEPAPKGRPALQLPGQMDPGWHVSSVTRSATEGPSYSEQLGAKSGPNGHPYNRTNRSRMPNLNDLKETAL

[6] = target: Cyclin-dependent kinase 11B (Homo sapiens) (UniProt P21127); assay: Selectivity interaction (KinomeScan (DiscoverX)) EUB0000595a CDK11B; settings: at 10 µM
Sequence of Cyclin-dependent kinase 11B (Homo sapiens) (P21127 whole entry, canonical isoform): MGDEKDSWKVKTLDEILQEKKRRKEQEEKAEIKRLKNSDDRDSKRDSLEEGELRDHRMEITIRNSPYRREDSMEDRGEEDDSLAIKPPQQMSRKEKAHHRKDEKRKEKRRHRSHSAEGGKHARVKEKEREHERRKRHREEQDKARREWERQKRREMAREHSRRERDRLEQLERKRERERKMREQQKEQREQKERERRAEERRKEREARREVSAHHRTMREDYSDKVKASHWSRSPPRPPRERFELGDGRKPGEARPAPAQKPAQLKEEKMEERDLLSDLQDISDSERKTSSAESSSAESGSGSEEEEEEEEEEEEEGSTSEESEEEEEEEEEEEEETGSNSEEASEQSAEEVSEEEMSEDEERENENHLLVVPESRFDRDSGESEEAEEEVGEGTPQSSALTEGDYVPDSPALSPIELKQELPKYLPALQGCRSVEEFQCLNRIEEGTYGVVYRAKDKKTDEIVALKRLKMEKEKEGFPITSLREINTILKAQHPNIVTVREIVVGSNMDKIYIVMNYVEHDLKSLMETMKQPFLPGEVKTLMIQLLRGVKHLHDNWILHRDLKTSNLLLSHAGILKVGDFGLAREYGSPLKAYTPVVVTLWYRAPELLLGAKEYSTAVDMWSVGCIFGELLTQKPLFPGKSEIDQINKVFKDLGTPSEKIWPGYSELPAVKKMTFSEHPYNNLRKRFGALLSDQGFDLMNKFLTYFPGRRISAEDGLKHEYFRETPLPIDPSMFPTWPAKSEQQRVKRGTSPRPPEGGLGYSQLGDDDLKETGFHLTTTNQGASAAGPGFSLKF

[7] = target: Phosphatidylinositol 4,5-bisphosphate 3-kinase catalytic subunit beta isoform (Homo sapiens) (UniProt P42338); assay: Selectivity interaction (KinomeScan (DiscoverX)) EUB0000595a PIK3CB; settings: at 10 µM
Sequence of Phosphatidylinositol 4,5-bisphosphate 3-kinase catalytic subunit beta isoform (Homo sapiens) (P42338 whole entry, looked up, canonical isoform): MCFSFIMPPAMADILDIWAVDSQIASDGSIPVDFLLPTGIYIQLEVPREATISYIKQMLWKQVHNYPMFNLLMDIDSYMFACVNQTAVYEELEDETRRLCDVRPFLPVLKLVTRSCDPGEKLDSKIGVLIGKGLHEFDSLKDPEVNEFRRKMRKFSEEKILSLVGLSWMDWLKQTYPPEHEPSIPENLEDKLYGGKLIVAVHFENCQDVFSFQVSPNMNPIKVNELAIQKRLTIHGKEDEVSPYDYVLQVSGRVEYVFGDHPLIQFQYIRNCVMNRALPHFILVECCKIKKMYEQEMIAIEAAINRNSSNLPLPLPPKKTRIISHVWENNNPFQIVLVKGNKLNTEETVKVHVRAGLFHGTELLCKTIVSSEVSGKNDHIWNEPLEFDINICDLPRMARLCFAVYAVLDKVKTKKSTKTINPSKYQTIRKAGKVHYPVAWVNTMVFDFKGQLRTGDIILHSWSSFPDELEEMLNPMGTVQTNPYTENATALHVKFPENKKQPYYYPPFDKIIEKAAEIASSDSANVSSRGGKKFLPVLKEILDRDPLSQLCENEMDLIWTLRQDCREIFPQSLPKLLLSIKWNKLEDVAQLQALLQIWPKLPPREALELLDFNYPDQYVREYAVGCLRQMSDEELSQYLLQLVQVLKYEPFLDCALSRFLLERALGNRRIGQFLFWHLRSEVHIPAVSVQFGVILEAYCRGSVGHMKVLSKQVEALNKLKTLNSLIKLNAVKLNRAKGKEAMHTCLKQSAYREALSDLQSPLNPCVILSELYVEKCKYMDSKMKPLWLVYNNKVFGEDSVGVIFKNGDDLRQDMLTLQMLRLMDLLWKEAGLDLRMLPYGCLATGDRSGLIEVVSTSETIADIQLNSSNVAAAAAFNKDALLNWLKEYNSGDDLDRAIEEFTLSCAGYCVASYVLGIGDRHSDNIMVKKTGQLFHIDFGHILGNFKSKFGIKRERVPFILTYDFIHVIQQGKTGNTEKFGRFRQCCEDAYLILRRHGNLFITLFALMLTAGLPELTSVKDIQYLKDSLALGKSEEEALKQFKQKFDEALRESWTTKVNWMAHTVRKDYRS

[8] = target: T2, Tyrosine-protein kinase ITK/TSK (Homo sapiens) (UniProt Q08881); assay: Selectivity interaction (Upstate Kinase Profiler service (Millipore)) EUB0000056c ITK; settings: at 1 µM
T2 sequence (whole entry): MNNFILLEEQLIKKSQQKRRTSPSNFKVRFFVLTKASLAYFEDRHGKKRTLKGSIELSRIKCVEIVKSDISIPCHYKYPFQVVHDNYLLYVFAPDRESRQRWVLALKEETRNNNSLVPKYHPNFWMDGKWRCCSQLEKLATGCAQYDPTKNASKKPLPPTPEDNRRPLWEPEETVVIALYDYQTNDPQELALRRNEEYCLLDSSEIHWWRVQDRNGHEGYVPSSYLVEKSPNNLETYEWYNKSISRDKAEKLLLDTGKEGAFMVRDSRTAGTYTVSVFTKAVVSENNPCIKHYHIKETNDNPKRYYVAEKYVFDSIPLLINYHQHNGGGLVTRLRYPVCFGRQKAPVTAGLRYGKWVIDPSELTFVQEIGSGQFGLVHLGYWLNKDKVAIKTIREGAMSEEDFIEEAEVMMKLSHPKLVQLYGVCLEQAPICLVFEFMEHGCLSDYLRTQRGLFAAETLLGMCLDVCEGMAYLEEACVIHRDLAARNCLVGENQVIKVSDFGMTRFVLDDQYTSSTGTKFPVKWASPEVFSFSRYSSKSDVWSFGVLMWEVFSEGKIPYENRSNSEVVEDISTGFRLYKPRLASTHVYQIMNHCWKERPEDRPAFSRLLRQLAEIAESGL

[9] = target: Calcium/calmodulin-dependent protein kinase type II subunit delta (Homo sapiens) (UniProt Q13557); assay: Selectivity interaction (ActivX KiNativ screen (kinase selectivity in THP-1 cell lysates)) EUB0000639a CAMK2D; assay type: subcellular; settings: lysate, at 5 µM
Sequence of Calcium/calmodulin-dependent protein kinase type II subunit delta (Homo sapiens) (Q13557 whole entry): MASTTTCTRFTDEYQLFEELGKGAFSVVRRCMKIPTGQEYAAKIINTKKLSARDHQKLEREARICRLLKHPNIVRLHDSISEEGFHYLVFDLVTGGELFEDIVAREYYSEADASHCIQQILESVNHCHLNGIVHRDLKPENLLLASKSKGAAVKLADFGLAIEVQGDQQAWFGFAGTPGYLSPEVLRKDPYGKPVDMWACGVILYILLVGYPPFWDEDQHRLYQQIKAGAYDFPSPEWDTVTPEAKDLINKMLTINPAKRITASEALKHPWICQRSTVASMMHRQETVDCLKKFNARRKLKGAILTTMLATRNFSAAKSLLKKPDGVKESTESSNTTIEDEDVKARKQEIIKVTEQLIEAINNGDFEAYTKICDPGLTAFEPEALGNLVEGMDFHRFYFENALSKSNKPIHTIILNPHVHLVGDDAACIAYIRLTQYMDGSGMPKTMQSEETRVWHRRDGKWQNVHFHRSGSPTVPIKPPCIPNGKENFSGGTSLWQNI

[10] = target: T3, Cytoplasmic tyrosine-protein kinase BMX (Homo sapiens) (UniProt P51813); assay: Selectivity interaction (KinomeScan (DiscoverX)) EUB0000092b BMX; settings: at 10 µM
T3 sequence (whole entry): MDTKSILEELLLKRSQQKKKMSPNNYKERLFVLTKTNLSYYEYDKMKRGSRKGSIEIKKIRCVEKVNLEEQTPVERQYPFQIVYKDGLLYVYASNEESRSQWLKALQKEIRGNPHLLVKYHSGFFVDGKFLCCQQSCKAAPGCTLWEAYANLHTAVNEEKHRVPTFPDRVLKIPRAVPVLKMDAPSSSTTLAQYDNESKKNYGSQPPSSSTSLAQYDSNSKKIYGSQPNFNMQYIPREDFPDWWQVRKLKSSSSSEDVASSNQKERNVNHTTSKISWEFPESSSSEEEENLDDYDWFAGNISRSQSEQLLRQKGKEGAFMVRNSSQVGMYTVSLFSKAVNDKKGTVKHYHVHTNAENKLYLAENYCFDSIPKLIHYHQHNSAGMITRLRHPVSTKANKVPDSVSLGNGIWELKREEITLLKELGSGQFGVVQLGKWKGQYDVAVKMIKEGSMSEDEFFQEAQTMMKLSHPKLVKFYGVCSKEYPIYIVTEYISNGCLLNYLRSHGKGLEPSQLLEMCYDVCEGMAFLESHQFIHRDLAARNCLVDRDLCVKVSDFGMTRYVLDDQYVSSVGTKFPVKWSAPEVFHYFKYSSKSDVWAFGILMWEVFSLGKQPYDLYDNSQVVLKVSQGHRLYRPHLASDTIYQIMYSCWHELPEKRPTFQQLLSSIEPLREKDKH

[11] = target: Phosphatidylinositol 4-kinase beta (Homo sapiens, UniProt Q9UBF8); assay: Selectivity interaction (Adapta Assay) EUB0001632a PI4KB; settings: at 10 µM
Sequence of Phosphatidylinositol 4-kinase beta (Q9UBF8 2-816 limits assumed): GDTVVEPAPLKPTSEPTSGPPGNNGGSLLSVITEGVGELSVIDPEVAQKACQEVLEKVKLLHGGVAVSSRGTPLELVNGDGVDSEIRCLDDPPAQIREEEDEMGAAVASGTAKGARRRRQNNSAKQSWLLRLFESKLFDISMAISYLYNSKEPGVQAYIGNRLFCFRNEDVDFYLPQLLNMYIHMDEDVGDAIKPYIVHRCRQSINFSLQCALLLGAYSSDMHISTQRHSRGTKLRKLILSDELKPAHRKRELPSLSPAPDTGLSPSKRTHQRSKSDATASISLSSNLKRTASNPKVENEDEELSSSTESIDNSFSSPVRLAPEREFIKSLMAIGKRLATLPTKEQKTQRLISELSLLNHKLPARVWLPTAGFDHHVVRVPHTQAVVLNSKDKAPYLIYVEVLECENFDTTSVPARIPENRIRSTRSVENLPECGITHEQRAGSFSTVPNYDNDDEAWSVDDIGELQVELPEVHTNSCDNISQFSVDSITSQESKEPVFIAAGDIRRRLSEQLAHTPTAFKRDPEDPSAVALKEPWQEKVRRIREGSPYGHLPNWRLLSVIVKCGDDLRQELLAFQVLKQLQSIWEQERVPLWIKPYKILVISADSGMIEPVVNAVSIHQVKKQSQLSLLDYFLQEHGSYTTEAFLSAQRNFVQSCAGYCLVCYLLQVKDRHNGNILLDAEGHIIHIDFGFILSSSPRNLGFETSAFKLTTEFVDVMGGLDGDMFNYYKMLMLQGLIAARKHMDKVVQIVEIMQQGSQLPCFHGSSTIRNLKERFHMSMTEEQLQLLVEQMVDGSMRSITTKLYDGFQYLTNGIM

Sequence of RAC-gamma serine/threonine-protein kinase (Q9Y243 whole entry): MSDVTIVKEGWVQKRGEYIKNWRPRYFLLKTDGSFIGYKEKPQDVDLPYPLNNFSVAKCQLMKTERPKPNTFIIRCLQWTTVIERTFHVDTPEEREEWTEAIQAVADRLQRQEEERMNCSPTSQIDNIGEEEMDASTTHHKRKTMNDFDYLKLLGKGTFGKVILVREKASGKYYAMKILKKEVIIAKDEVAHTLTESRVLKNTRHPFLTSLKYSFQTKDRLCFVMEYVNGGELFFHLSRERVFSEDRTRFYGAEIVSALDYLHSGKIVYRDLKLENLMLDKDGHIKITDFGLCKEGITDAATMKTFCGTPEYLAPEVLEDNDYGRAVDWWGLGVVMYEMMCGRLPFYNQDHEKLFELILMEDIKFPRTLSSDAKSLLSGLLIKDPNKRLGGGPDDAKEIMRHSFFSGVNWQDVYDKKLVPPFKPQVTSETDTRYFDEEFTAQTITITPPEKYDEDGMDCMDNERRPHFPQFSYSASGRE

SMILES: CN(C)C/C=C/C(=O)Nc1ccc(C(=O)N2CCCC(Nc3ncc(Cl)c(-c4c[nH]c5ccccc45)n3)C2)cc1 (stereo unspecified)
- % of control [1]: 96%

- dTM [2]: 1.2 K
SMILES: CN(C(=O)c1cnn2cccnc12)c1cc2c(cc1N1CCOCC1)C(=O)N(C[C@@H](F)C(C)(C)O)C2

SMILES: CN(C)CCOc1ccc(-c2nc(-c3ccncc3)c(-c3ccc4c(c3)CC/C4=N\O)[nH]2)cc1
- % of control [3]: 67%

SMILES: O[C@H]1CC[C@H](Nc2ncc3nc(Nc4c(F)cc(F)cc4F)n([C@H]4CCOC4)c3n2)CC1
- % of control [4]: 100%

SMILES: CNC(=O)Nc1ccc(-c2nc(N3CC4CCC(C3)O4)c3cnn(C4CCC5(CC4)OCCO5)c3n2)cc1
- % of control [5]: 79%

SMILES: COCC(=O)NC/C=C/c1ccc2ncnc(Nc3ccc(Oc4ccc(C)nc4)c(C)c3)c2c1 [CP-724714]
- % of control [6]: 100%
- % of control [7]: 100%

- % of inhibition [8]: -1%
SMILES: Cc1ccc(-c2ccc3c(ccc4sc5c(c43)NC[C@@H](C)NC5=O)n2)cn1

- % of inhibition [9]: 56.2%
SMILES: CC[C@@H]1[C@H](F)C(=O)N[C@@H]1COc1nccc2cc(C(N)=O)c(OC)cc12 [ZIMLOVISERTIB]

SMILES: CCC(=O)N1CCN(c2ccc(-n3c(=O)ccc4cnc5ccc(-c6cnc7ccccc7c6)cc5c43)cc2C(F)(F)F)CC1
- % of control [10]: 59%

- % of inhibition [11]: -10.8%
SMILES: Cn1cc(-n2cnc3c(NCc4nc5cc(Cl)c(Cl)cc5[nH]4)nc(N4CCOCC4)nc32)cn1
